These results are taken from US9187460B2, “Estrogen receptor modulators and uses thereof” (SERAGON PHARMACEUTICALS, INC., priority 2011, dated 2015).

One assay deals with MCF-7 cells. As to the kind of experiment: Breast Cancer Cell Viability Assay (MCF7 Viability Assay). The format is cell-based. To be noted: for pIC50: Homo sapiens, MCF7, 120 h, read-out: MCF7 Viability Assay IC50; for MCF7 Viability Assay Max Response: MCF-7 cells, 5 days' compound exposure, CellTiter-Glo. A general note: ATP-based viability assays read luminescence as a measure of living cells.

In the next assay the target is T1, ER-α (Homo sapiens, UniProt P03372).
T1 construct: endogenous in cells; host or cells: MCF-7
As to the kind of experiment: Breast Cancer Cell ER-α in Cell Western Assay (SP1). It is filed as cell-based. To be noted: MCF7, read-out: ER In-Cell Western Assay (SP1); Max Response. The protocol:
Breast Cancer Cell ER-α in Cell Western Assay (SP1)
MCF-7 cells were adjusted to a concentration of 200,000 cells per mL in RPMI containing 10% charcoal-stripped FBS and 20 mM HEPES. 16 microliters of the cell suspension (3200 cells) was added to each well of a poly-D-lysine 384 well plate, and the cells were incubated overnight to allow the cells to adhere. The following day an eleven point, serial semilog dilution of each compound was added to the cells in 16 μL at a final concentration ranging from 0.3-0.000003 μM. At 4 or 24 hr post compound addition, the cells were fixed (10% formalin in PBS) for 20 minutes. Cells were permeablized in PBS 0.1% Triton and blocked with LICOR blocking buffer (50 μl/well, 90′). The wells were then incubated overnight at 4° C. with SP1 rabbit monoclonal Ab (Thermo Scientific) diluted 1:1000 in LICOR blocking buffer/0.1% Tween-20. Wells which were treated with blocking buffer with Tween but no antibody were used as a background control. Wells were washed with 0.1% Tween-20/PBS and then incubated in goat anti-rabbit IRDye™ 800CW (LICOR Inc.; 1:1000) and DRAQ5 DNA dye (1:2000 for 2 mM stock) diluted in LICOR blocking buffer containing 0.1% Tween-20 and 0.01% SDS for 60 minutes. Cells were washed (50 μl/well, 5′ each) in 0.1% Tween-20/PBS. Plates were scanned on a LICOR Odyssey infrared imaging system. Integrated intensities in the 800 nm channel and 700 nm channel were measured to determine levels of ER and DNA respectively. Percent ER levels were determined as follows: (Integrated intensity 800 nm sample/integrated intensity 700 nm sample)/(Integrated intensity 800 nm untreated cells/integrated intensity 700 nm untreated cells)×100=% ER levels.

pIC50: −log10 of the molar value.

T1 sequence (P03372 whole entry): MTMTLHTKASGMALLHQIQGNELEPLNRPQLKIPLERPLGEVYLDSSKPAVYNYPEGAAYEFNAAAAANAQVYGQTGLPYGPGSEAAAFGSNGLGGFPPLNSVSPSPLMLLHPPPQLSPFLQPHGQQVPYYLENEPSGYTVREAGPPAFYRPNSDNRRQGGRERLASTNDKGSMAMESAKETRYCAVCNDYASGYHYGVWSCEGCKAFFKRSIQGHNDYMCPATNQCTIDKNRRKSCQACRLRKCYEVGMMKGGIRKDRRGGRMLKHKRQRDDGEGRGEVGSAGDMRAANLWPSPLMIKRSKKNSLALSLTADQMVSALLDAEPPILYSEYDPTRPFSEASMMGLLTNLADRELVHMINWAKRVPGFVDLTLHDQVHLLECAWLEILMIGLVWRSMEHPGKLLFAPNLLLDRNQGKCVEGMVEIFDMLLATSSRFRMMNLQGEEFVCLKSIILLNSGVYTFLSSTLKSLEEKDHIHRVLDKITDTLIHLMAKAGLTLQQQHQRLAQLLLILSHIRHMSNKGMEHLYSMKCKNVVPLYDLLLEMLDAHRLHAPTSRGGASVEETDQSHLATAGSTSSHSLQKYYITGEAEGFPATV

As to `CC1=C(c2cc(O)cc(Br)c2)C(c2ccc(OC[C@H](C)N3CC[C@@H](C)C3)cc2)Oc2ccc(O)cc21` (stereo partly drawn) [Example 1, 3-(3-Bromo-5-hydroxyphenyl)-4-methyl-2-(4-((S)-2-((R)-3-methylpyrrolidin-1-yl)propoxy)phenyl)-2H-chromen-6-ol], in the assay on MCF-7 cells, the negative logarithm of the IC50 (pIC50) – broadly, −log10 of the IC50, conventionally taken in molar units – is more than 9.00 and the “MCF7 Viability Assay Max Response” value is on record as “++ (++ = a single % value ≧50%)”. Also, the Emax on ER-α is more than 85%.

For the molecule `CC1=C(c2cc(O)ccc2Br)C(c2ccc(OC[C@H](C)N3CC[C@@H](C)C3)cc2)Oc2ccc(O)cc21` (stereo partly drawn) [Example 2, 3-(2-Bromo-5-hydroxyphenyl)-4-methyl-2-(4-((S)-2-((R)-3-methylpyrrolidin-1-yl)propoxy)phenyl)-2H-chromen-6-ol], in the assay with MCF-7 cells, the pIC50 was more than 9.00 and the “MCF7 Viability Assay Max Response” value is given as “++ (++ = a single % value ≧50%)”. Moreover, the Emax at ER-α was more than 85%.

Turning to `CC1=C(c2ccccc2Br)C(c2ccc(OC[C@H](C)N3CC[C@@H](C)C3)cc2)Oc2ccc(O)cc21` (stereo partly drawn) [Example 3, 3-(2-Bromophenyl)-4-methyl-2-(4-((S)-2-((R)-3-methylpyrrolidin-1-yl)propoxy)phenyl)-2H-chromen-6-ol], in the assay on MCF-7 cells, the pIC50 was more than 9.00 and the “MCF7 Viability Assay Max Response” value is on record as “++ (++ = a single % value ≧50%)”. At ER-α, the Emax was 60 to 85%.

As to `CC1=C(c2ccc(Br)cc2C)C(c2ccc(OC[C@H](C)N3CC[C@@H](C)C3)cc2)Oc2ccc(O)cc21` (stereo partly drawn) [Example 4, 3-(4-Bromo-2-methylphenyl)-4-methyl-2-(4-((S)-2-((R)-3-methylpyrrolidin-1-yl)propoxy)phenyl)-2H-chromen-6-ol], in the assay with MCF-7 cells, the pIC50 was less than 9.00 and the “MCF7 Viability Assay Max Response” value is reported as “++ (++ = a single % value ≧50%)”. Also, at ER-α, the Emax fell in the range of 60 to 85%.

For `CC1=C(c2ccc(C#N)cc2)C(c2ccc(OC[C@H](C)N3CC[C@@H](C)C3)cc2)Oc2ccc(O)cc21` (stereo partly drawn) [Example 5, 4-(6-Hydroxy-4-methyl-2-(4-((S)-2-((R)-3-methylpyrrolidin-1-yl)propoxy)phenyl)-2H-chromen-3-yl)benzonitrile], in the assay with MCF-7 cells, the pIC50 is less than 9.00 and the “MCF7 Viability Assay Max Response” value was “++ (++ = a single % value ≧50%)”. In addition, at ER-α, the Emax is 60 to 85%.

For the molecule `CC1=C(c2cccc(C#N)c2)C(c2ccc(OC[C@H](C)N3CC[C@@H](C)C3)cc2)Oc2ccc(O)cc21` (stereo partly drawn) [Example 6, 3-(6-Hydroxy-4-methyl-2-(4-((S)-2-((R)-3-methylpyrrolidin-1-yl)propoxy)phenyl)-2H-chromen-3-yl)benzonitrile], in the assay on MCF-7 cells, the pIC50 was less than 9.00 and the “MCF7 Viability Assay Max Response” value was “++ (++ = a single % value ≧50%)”. The Emax on ER-α was 60 to 85%.

Consider `CC1=C(c2cc(O)cc(C#N)c2)C(c2ccc(OC[C@H](C)N3CC[C@@H](C)C3)cc2)Oc2ccc(O)cc21` (stereo partly drawn) [Example 7, 3-Hydroxy-5-(6-hydroxy-4-methyl-2-(4-((S)-2-((R)-3-methylpyrrolidin-1-yl)propoxy)phenyl)-2H-chromen-3-yl)benzonitrile], for which, in the assay with MCF-7 cells, the pIC50 is more than 9.00 and the “MCF7 Viability Assay Max Response” value is on record as “++ (++ = a single % value ≧50%)”. Moreover, the Emax on ER-α was in the range of 60 to 85%.

For the molecule `CC1=C(c2cc(O)ccc2C#N)C(c2ccc(OC[C@H](C)N3CC[C@@H](C)C3)cc2)Oc2ccc(O)cc21` (stereo partly drawn) [Example 8, 4-Hydroxy-2-(6-hydroxy-4-methyl-2-(4-((S)-2-((R)-3-methylpyrrolidin-1-yl)propoxy)phenyl)-2H-chromen-3-yl)benzonitrile], in the assay with MCF-7 cells, the negative-log IC50 (pIC50) was more than 9.00 and the “MCF7 Viability Assay Max Response” value was “++ (++ = a single % value ≧50%)”. Further, the Emax at ER-α is more than 85%.

Take `CC1=C(c2cccc(O)c2C#N)C(c2ccc(OC[C@H](C)N3CC[C@@H](C)C3)cc2)Oc2ccc(O)cc21` (stereo partly drawn) [Example 9, 2-Hydroxy-6-(6-hydroxy-4-methyl-2-(4-((S)-2-((R)-3-methylpyrrolidin-1-yl)propoxy)phenyl)-2H-chromen-3-yl)benzonitrile]: in the assay with MCF-7 cells, the pIC50 was less than 9.00 and the “MCF7 Viability Assay Max Response” value is reported as “++ (++ = a single % value ≧50%)”. Besides, the Emax on ER-α is 60 to 85%.

For the molecule `CC1=C(c2ccc(C#N)c(O)c2)C(c2ccc(OC[C@H](C)N3CC[C@@H](C)C3)cc2)Oc2ccc(O)cc21` (stereo partly drawn) [Example 10, 2-Hydroxy-4-(6-hydroxy-4-methyl-2-(4-((S)-2-((R)-3-methylpyrrolidin-1-yl)propoxy)phenyl)-2H-chromen-3-yl)benzonitrile], in the assay on MCF-7 cells, the negative logarithm of the IC50 (pIC50) is less than 9.00 and the “MCF7 Viability Assay Max Response” value was “++ (++ = a single % value ≧50%)”. For the same molecule, the Emax at ER-α was more than 85%.

Regarding `CC1=C(c2ccc(O)c(C#N)c2)C(c2ccc(OC[C@H](C)N3CC[C@@H](C)C3)cc2)Oc2ccc(O)cc21` (stereo partly drawn) [Example 11, 2-Hydroxy-5-(6-hydroxy-4-methyl-2-(4-((S)-2-((R)-3-methylpyrrolidin-1-yl)propoxy)phenyl)-2H-chromen-3-yl)benzonitrile], in the assay with MCF-7 cells, the pIC50 was less than 9.00 and the “MCF7 Viability Assay Max Response” value is “++ (++ = a single % value ≧50%)”. For the same molecule, the Emax on ER-α is more than 85%.

Consider `CC1=C(c2ccc(O)cc2C#N)C(c2ccc(OC[C@H](C)N3CC[C@@H](C)C3)cc2)Oc2ccc(O)cc21` (stereo partly drawn) [Example 12, 5-Hydroxy-2-(6-hydroxy-4-methyl-2-(4-((S)-2-((R)-3-methylpyrrolidin-1-yl)propoxy)phenyl)-2H-chromen-3-yl)benzonitrile], for which, in the assay on MCF-7 cells, the pIC50 is more than 9.00 and the “MCF7 Viability Assay Max Response” value is given as “++ (++ = a single % value ≧50%)”. For the same molecule, the Emax at ER-α fell in the range of 60 to 85%.

Turning to `CC1=C(c2ccc(C#N)cc2C)C(c2ccc(OC[C@H](C)N3CC[C@@H](C)C3)cc2)Oc2ccc(O)cc21` (stereo partly drawn) [Example 13, 4-(6-Hydroxy-4-methyl-2-(4-((S)-2-((R)-3-methylpyrrolidin-1-yl)propoxy)phenyl)-2H-chromen-3-yl)-3-methylbenzonitrile], in the assay with MCF-7 cells, the negative logarithm of the IC50 (pIC50) is less than 9.00 and the “MCF7 Viability Assay Max Response” value is listed as “++ (++ = a single % value ≧50%)”. The Emax at ER-α was 60 to 85%.

`CC1=C(c2ccccc2C#N)C(c2ccc(OC[C@H](C)N3CC[C@@H](C)C3)cc2)Oc2ccc(O)cc21` (stereo partly drawn) [Example 14, 2-(6-Hydroxy-4-methyl-2-(4-((S)-2-((R)-3-methylpyrrolidin-1-yl)propoxy)phenyl)-2H-chromen-3-yl)benzonitrile]: in the assay with MCF-7 cells, the pIC50 is less than 9.00 and the “MCF7 Viability Assay Max Response” value is “++ (++ = a single % value ≧50%)”. Besides, the Emax at ER-α was in the range of 60 to 85%.

Take `CC1=C(c2cccc(S(C)(=O)=O)c2)C(c2ccc(OC[C@H](C)N3CC[C@@H](C)C3)cc2)Oc2ccc(O)cc21` (stereo partly drawn) [Example 15, 4-Methyl-2-(4-((S)-2-((R)-3-methylpyrrolidin-1-yl)propoxy)phenyl)-3-(3-(methylsulfonyl)phenyl)-2H-chromen-6-ol]: in the assay on MCF-7 cells, the pIC50 was less than 9.00 and the “MCF7 Viability Assay Max Response” value is given as “++ (++ = a single % value ≧50%)”. In addition, on ER-α, the Emax was in the range of 60 to 85%.

`CC1=C(c2cc(O)cc(S(C)(=O)=O)c2)C(c2ccc(OC[C@H](C)N3CC[C@@H](C)C3)cc2)Oc2ccc(O)cc21` (stereo partly drawn) [Example 16, 3-(3-Hydroxy-5-(methylsulfonyl)phenyl)-4-methyl-2-(4-((S)-2-((R)-3-methylpyrrolidin-1-yl)propoxy)phenyl)-2H-chromen-6-ol]: in the assay on MCF-7 cells, the pIC50 was less than 9.00 and the “MCF7 Viability Assay Max Response” value was “++ (++ = a single % value ≧50%)”. Also, on ER-α, the Emax was in the range of 60 to 85%.

As for `CC1=C(c2ccc(O)c(S(C)(=O)=O)c2)C(c2ccc(OC[C@H](C)N3CC[C@@H](C)C3)cc2)Oc2ccc(O)cc21` (stereo partly drawn) [Example 17, 3-(4-Hydroxy-3-(methylsulfonyl)phenyl)-4-methyl-2-(4-((S)-2-((R)-3-methylpyrrolidin-1-yl)propoxy)phenyl)-2H-chromen-6-ol], in the assay with MCF-7 cells, the negative-log IC50 (pIC50) was less than 9.00 and the “MCF7 Viability Assay Max Response” value is on record as “+ (+ = a single % value <50%)”. Moreover, the Emax at ER-α was less than 60%.

As for `CC1=C(c2ccc(S(C)(=O)=O)cc2C)C(c2ccc(OC[C@H](C)N3CC[C@@H](C)C3)cc2)Oc2ccc(O)cc21` (stereo partly drawn) [Example 18, 4-Methyl-3-(2-methyl-4-(methylsulfonyl)phenyl)-2-(4-((S)-2-((R)-3-methylpyrrolidin-1-yl)propoxy)phenyl)-2H-chromen-6-ol], in the assay on MCF-7 cells, the negative-log IC50 (pIC50) is less than 9.00 and the “MCF7 Viability Assay Max Response” value is listed as “++ (++ = a single % value ≧50%)”. At ER-α, the Emax lay in the range of 60 to 85%.

Turning to `CC1=C(c2cccc(O)c2)C(c2ccc(OCCN3CCSCC3)cc2)Oc2ccc(O)cc21` (stereo not drawn) [Example 19, 3-(3-Hydroxyphenyl)-4-methyl-2-(4-(2-thiomorpholinoethoxy)phenyl)-2H-chromen-6-ol], in the assay with MCF-7 cells, the pIC50 is more than 9.00 and the “MCF7 Viability Assay Max Response” value is recorded as “+ (+ = a single % value <50%)”. On ER-α, the Emax lay within 60 to 85%.
